As usually defined, the ED50 is the dose that gives a 50% effect, or the effect in half of the subjects.

T1 sequence (Q9TST6 whole entry): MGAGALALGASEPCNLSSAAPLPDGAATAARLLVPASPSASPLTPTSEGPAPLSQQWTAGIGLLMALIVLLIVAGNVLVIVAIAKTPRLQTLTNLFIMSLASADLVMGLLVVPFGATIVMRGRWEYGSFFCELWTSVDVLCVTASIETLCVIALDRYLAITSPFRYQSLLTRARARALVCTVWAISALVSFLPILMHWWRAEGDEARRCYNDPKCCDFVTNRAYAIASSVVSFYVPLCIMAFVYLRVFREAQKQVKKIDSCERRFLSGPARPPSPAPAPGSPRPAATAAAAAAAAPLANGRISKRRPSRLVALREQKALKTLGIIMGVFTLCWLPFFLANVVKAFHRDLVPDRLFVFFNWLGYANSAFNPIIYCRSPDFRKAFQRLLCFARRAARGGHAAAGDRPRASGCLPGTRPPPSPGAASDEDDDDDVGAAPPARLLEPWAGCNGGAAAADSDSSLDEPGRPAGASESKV

The first assay addresses T1, cardiac β-receptors (Felis catus, UniProt Q9TST6).
T1 construct: bodyweight of isoprenaline into a chloralose-anaesthetised cat; from tissue; host or cells: heart of the living chloralose-anaesthetised cat (in vivo)
Description: inhibition of the tachycardia produced by injection of 0.2 μg/kg isoprenaline into a chloralose-anaesthetised cat (β-adrenergic blocking activity). It is filed as in vivo. The conditions noted are these: cat, read-out: ED50, Compound A. The procedure:
The comparison of the β-adrenergic blocking activity of compounds of the present invention with those of the said prior specification may be carried out using a test standard in the art, namely the inhibition of the tachycardia produced by the injection of 0.2 μg. per kg. bodyweight of isoprenaline into a chloralose-anaesthetised cat.
For the molecule `CC(C)NCC(O)COc1ccc(CC(N)=O)cc1` (stereo not shown) [Compound A, R^1 isopropyl, R^2 H, reference compound], the ED50 turned out to be 0.096 mg/kg.

Still in this assay, the particulars now being: inhibition of tachycardia by 0.2 μg/kg isoprenaline, chloralose-anaesthetised cat; per kg bodyweight; read-out: 50% inhibitory dose (ED50), β-adrenergic blocking activity.
Turning to `CC(=O)Nc1ccc(OCC(O)CNC(C)C)cc1` (stereo not shown) [practolol, reference compound], the ED50 is roughly 0.2 mg/kg.
Take `CC(C)NCC(O)COc1ccccc1OCC(N)=O` (stereo not shown) [Compound B, R^1 isopropyl, R^3 H, 1-isopropylamino-3-(o-carbamoylmethoxyphenoxy)propan-2-ol]: the ED50 stood at 0.058 mg/kg.
On to `CC(C)NCC(O)COc1ccccc1CC(N)=O` (stereo not shown) [1-o-carbamoylmethylphenoxy-3-isopropylaminopropan-2-ol, reference compound], for which the 50% effective dose (ED50) was determined as 0.481 mg/kg.

Still in this assay, the particulars now being: ortho-substituted compounds of the invention; chloralose-anaesthetised cat, isoprenaline 0.2 μg/kg; read-out: ED50, Compound B.
For `CC(C)NCC(O)COc1ccccc1OCC(N)=O` (stereo not shown) [Compound B, R^1 isopropyl, R^3 H, 1-isopropylamino-3-(o-carbamoylmethoxyphenoxy)propan-2-ol], the ED50 was found to be 0.058 mg/kg.
On to `CC(C)NCC(O)COc1ccccc1OCC(=O)NC(C)C` (stereo not shown) [Compound B, R^1 isopropyl, R^3 isopropyl, 1-isopropylamino-3-(o-N-isopropylcarbamoylmethoxyphenoxy)propan-2-ol], for which the ED50 stood at 0.2 mg/kg.
Take `CNC(=O)COc1ccccc1OCC(O)CNC(C)C` (stereo not shown) [Compound B, R^1 isopropyl, R^3 methyl, 1-isopropylamino-3-(o-N-methylcarbamoylmethoxyphenoxy)propan-2-ol]: the median effective dose (ED50) is 0.02 mg/kg.
Same read-out and setting: the figure for `C=CCNC(=O)COc1ccccc1OCC(O)CNC(C)C` (stereo not shown) [Compound B, R^1 isopropyl, R^3 allyl, 1-isopropylamino-3-(o-N-allylcarbamoylmethoxyphenoxy)propan-2-ol] is 0.034 mg/kg; for `CCCCNC(=O)COc1ccccc1OCC(O)CNC(C)C` (stereo not shown) [Compound B, R^1 isopropyl, R^3 n-butyl] it is 0.143 mg/kg.
On to `CC(C)(C)NCC(O)COc1ccccc1OCC(N)=O` (stereo not shown) [Compound B, R^1 t-butyl, R^3 H, 1t-butylamino-3-(o-carbamoylmethoxyphenoxy)propan-2-ol], for which the median effective dose (ED50) was determined as 0.011 mg/kg.

The same assay, now with this note: other highly active compounds of the invention; chloralose-anaesthetised cat, isoprenaline 0.2 μg/kg; read-out: ED50.
Consider `C=CCNC(=O)COc1ccccc1OCC(O)CNC(C)(C)C` (stereo not shown) [R^1 t-butyl, R^3 allyl, 1-t-butylamino-3-(o-N-allylcarbamoylmethoxyphenoxy)propan-2-ol], for which the ED50 was determined as 0.027 mg/kg.
For the molecule `CNC(=O)COc1ccccc1OCC(O)CNC(C)(C)CO` (stereo not shown), the median effective dose (ED50) was 0.03 mg/kg.
On the same count and under the same terms, the figure for `CC(C)NCC(O)COc1ccccc1OCC(=O)NCCCO` (stereo not shown) [R^1 isopropyl, R^3 3-hydroxypropyl, 1-o-(N-γ-hydroxypropylcarbamoylmethoxy)phenoxy-3-isopropylamino-2-propanol] is 0.047 mg/kg; for `CC(C)(C)NCC(O)COc1ccccc1OCC(=O)NCCCO` (stereo not shown) [R^1 t-butyl, R^3 3-hydroxypropyl, 1-o-(N-γ-hydroxypropylcarbamoyl-methoxy)phenoxy-3-t-butylamino-2-propanol] it is 0.074 mg/kg.
As to `CNC(=O)COc1ccccc1OCC(O)CNC(C)(C)C` (stereo not shown) [R^1 t-butyl, R^3 methyl, 1-t-butylamino-3-(o-N-methylcarbamoylmethoxyphenoxy)propan-2-ol], the ED50 is 0.014 mg/kg.
Consider `CC(C)NCC(O)COc1ccccc1OCC(=O)NCCO` (stereo not drawn) [R^1 isopropyl, R^3 2-hydroxyethyl, 1-o-(N-β-hydroxyethylcarbamoylmethoxy)phenoxy-3-isopropylamino-2-propanol], for which the ED50 worked out at 0.009 mg/kg.
Turning to `CCNC(=O)COc1ccccc1OCC(O)CNC(C)(C)C` (stereo not shown) [R^1 t-butyl, R^3 ethyl, 1-t-butylamino-3-(o-N-ethylcarbamoylmethoxyphenoxy)propan-2-ol], the ED50 was determined as 0.018 mg/kg.
With `COCCNC(=O)COc1ccccc1OCC(O)CNC(C)C` (stereo not drawn) [R^1 isopropyl, R^3 2-methoxyethyl, 1-o-(N-β-methoxyethylcarbamoylmethoxy)phenoxy-3-isopropylamino-2-propanol], the 50% effective dose (ED50) stood at 0.027 mg/kg.
For the molecule `CCNC(=O)COc1ccccc1OCC(O)CNC(C)C` (stereo not shown) [R^1 isopropyl, R^3 ethyl, 1-isopropylamino-3-(o-N-ethylcarbamoylmethoxyphenoxy)propan-2-ol], the ED50 was 0.068 mg/kg.
Same read-out and setting: to `CC(C)(C)NCC(O)COc1ccccc1OCC(=O)NCCO` (stereo not drawn) [R^1 t-butyl, R^3 2-hydroxyethyl, 1-o-(N-β-hydroxyethylcarbamoylmethoxy)phenoxy-3-t-butylaminopropan-2-ol] belongs 0.04 mg/kg.

The assay is the same for the next values; noted with them: para-substituted prior-art compounds; chloralose-anaesthetised cat, isoprenaline 0.2 μg/kg; read-out: ED50, Compound A.
Turning to `CC(C)NCC(O)COc1ccc(CC(=O)NC(C)C)cc1` (stereo not shown) [Compound A, R^1 isopropyl, R^2 isopropyl, reference compound], the ED50 came to 0.225 mg/kg.
Take `CC(C)(C)NCC(O)COc1ccc(CC(N)=O)cc1` (stereo not shown) [Compound A, R^1 t-butyl, R^2 H, reference compound]: the ED50 worked out at 0.136 mg/kg.
As to `CNC(=O)Cc1ccc(OCC(O)CNC(C)C)cc1` (stereo not shown) [Compound A, R^1 isopropyl, R^2 methyl, reference compound], the ED50 turned out to be 0.335 mg/kg.
As for `CCCCNC(=O)Cc1ccc(OCC(O)CNC(C)C)cc1` (stereo not shown) [Compound A, R^1 isopropyl, R^2 n-butyl, reference compound], the ED50 worked out at 0.606 mg/kg.
Still for that read-out and setting: the figure for `C=CCNC(=O)Cc1ccc(OCC(O)CNC(C)C)cc1` (stereo not shown) [Compound A, R^1 isopropyl, R^2 allyl, reference compound] is 1.47 mg/kg.

The record behind these values is patent publication US4059622A, “Alkanolamine derivatives” (Imperial Chemical Industries Limited, priority 1970, dated 1977).
